The NIST ThermoML archive (doi:10.1016/j.jct.2006.10.017)
± gives the expanded uncertainty stated by the source.

Experiments:
[1] = xn = mol fraction of the nth substance listed; conditions: 101 kPa, Liquid
[2] = refractive index (Na D-line) (dimensionless); xn = mol fraction of the nth substance listed; conditions: 101 kPa, Liquid

CCCCn1cc[n+](C)c1.COS(=O)(=O)[O-] [1-butyl-3-methylimidazolium methyl sulfate] + CCO
Conditions	mass density, 293.15 K [kg/m3]	mass density, 298.15 K [kg/m3]	mass density, 303.15 K [kg/m3]	refractive index, 293.15 K	refractive index, 298.15 K	refractive index, 303.15 K	speed of sound, 293.15 K [m/s]	speed of sound, 298.15 K [m/s]	speed of sound, 303.15 K [m/s]
[1], x1 = 0.0501	860.2 ± 0.7	856.4 ± 0.8	852.2 ± 0.8	–	–	–	1218 ± 10	1203 ± 10	1189 ± 10
[1], x1 = 0.1015	916.9 ± 0.6	913 ± 0.6	909 ± 0.6	–	–	–	1277 ± 10	1262 ± 10	1248 ± 10
[1], x1 = 0.1961	993.7 ± 0.4	990 ± 0.4	986.2 ± 0.4	–	–	–	1358 ± 11	1343 ± 11	1324 ± 11
[1], x1 = 0.299	1052.2 ± 0.5	1048.6 ± 0.5	1044.9 ± 0.5	–	–	–	1425 ± 11	1412 ± 11	1392 ± 11
[1], x1 = 0.3914	1091.3 ± 0.7	1087.8 ± 0.7	1084.1 ± 0.7	–	–	–	1479 ± 12	1466 ± 12	1446 ± 11
[1], x1 = 0.5025	1127.3 ± 1	1123.7 ± 0.9	1120.1 ± 0.9	–	–	–	1538 ± 12	1525 ± 12	1508 ± 12
[1], x1 = 0.6073	1153.5 ± 1.2	1150 ± 1.2	1146.5 ± 1.1	–	–	–	1576 ± 12	1563 ± 12	1553 ± 12
[1], x1 = 0.6982	1172 ± 1.4	1168.5 ± 1.4	1165 ± 1.3	–	–	–	1598 ± 12	1584 ± 12	1574 ± 12
[1], x1 = 0.8002	1189.2 ± 1.6	1185.6 ± 1.6	1182.2 ± 1.6	–	–	–	1626 ± 13	1612 ± 13	1602 ± 13
[1], x1 = 0.8992	1203.1 ± 1.8	1199.7 ± 1.8	1196.3 ± 1.8	–	–	–	1650 ± 13	1636 ± 13	1626 ± 13
[1], x1 = 0.9498	1209.5 ± 2	1206.1 ± 2	1202.7 ± 1.9	–	–	–	1659 ± 13	1645 ± 13	1633 ± 13
[1], x1 = 1	1215.6 ± 2.1	1212.2 ± 2.1	1208.8 ± 2.1	–	–	–	1671 ± 13	1658 ± 13	1645 ± 13
[2], x1 = 0.0501	–	–	–	1.38149 ± 0.0013	1.3797 ± 0.0013	1.37885 ± 0.0014	–	–	–
[2], x1 = 0.1015	–	–	–	1.39827 ± 0.0013	1.39667 ± 0.0013	1.39541 ± 0.0014	–	–	–
[2], x1 = 0.1961	–	–	–	1.42043 ± 0.0013	1.41884 ± 0.0013	1.41656 ± 0.0015	–	–	–
[2], x1 = 0.299	–	–	–	1.43625 ± 0.0013	1.43478 ± 0.0013	1.43335 ± 0.0014	–	–	–
[2], x1 = 0.3914	–	–	–	1.44713 ± 0.0013	1.4456 ± 0.0013	1.44408 ± 0.0013	–	–	–
[2], x1 = 0.5025	–	–	–	1.45714 ± 0.0013	1.45586 ± 0.0013	1.45509 ± 0.0013	–	–	–
[2], x1 = 0.6073	–	–	–	1.46429 ± 0.0013	1.46284 ± 0.0013	1.46136 ± 0.0013	–	–	–
[2], x1 = 0.6982	–	–	–	1.46926 ± 0.0013	1.4678 ± 0.0013	1.46639 ± 0.0013	–	–	–
[2], x1 = 0.8002	–	–	–	1.47391 ± 0.0013	1.47249 ± 0.0013	1.47111 ± 0.0013	–	–	–
[2], x1 = 0.8992	–	–	–	1.47757 ± 0.0013	1.47623 ± 0.0013	1.47485 ± 0.0013	–	–	–
[2], x1 = 0.9498	–	–	–	1.47901 ± 0.0013	1.47766 ± 0.0013	1.47622 ± 0.0013	–	–	–
[2], x1 = 1	–	–	–	1.48077 ± 0.0013	1.47942 ± 0.0013	1.47806 ± 0.0013	–	–	–
